Drawing on US20090018134A1, “Compounds - 945” (AstraZeneca AB, priority 2007, published 2009), this text covers IC50 for 28 compounds.

The assay concerns the target T1, mTOR (Homo sapiens, UniProt P42345).
T1 construct: FLAG; made in house
Kind of assay: In Vitro mTOR Kinase Assay (Echo), Test (a)(ii). The class given is biochemical. The following applies: table of enzyme assay Test (a)(ii); read-out: Test (a)(ii) IC50. The gist of the method:
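Compounds were acoustically dispensed, then incubated with FLAG-tagged mTOR (1362-2549) for 2 hours at room temperature. Reactions were quenched with EDTA plus detection antibody and AlphaScreen beads and left overnight in the dark before reading. Loss of phospho-T389 signal gave IC50 values.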

Broadly, the IC50 is the point on the concentration scale where inhibition reaches its midpoint.

Each structure is given as a SMILES string.

T1 sequence (P42345 1362-2549): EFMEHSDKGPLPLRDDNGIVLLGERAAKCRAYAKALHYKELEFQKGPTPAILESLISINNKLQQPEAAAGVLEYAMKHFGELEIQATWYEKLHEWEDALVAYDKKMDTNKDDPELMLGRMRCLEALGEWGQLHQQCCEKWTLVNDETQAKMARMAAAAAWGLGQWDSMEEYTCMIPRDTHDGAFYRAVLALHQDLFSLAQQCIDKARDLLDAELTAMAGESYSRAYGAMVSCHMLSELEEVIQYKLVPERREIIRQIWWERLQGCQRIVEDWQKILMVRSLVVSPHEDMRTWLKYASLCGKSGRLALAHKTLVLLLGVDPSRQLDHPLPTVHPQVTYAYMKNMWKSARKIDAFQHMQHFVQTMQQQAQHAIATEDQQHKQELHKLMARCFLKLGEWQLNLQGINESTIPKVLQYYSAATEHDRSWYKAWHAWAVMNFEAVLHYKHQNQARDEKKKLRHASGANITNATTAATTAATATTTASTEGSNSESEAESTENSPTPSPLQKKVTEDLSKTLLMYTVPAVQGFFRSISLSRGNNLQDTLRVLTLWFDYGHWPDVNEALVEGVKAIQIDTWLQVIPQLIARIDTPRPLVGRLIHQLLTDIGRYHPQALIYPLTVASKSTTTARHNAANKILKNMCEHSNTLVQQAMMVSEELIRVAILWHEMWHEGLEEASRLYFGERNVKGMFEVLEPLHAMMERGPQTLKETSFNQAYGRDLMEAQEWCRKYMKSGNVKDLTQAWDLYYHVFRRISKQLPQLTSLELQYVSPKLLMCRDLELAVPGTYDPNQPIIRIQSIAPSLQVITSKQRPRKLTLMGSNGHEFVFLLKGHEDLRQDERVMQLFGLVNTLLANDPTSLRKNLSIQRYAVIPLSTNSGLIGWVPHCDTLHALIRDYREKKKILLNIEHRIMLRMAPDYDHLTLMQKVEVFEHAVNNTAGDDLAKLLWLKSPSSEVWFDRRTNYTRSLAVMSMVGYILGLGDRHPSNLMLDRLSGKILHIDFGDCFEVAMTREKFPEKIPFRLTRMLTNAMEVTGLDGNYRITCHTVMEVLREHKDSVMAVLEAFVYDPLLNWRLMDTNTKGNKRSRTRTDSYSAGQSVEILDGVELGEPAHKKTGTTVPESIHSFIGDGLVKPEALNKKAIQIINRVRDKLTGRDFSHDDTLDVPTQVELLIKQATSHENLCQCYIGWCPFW

Regarding `C[C@H]1COCCN1c1cc(C2(S(C)(=O)=O)CCCC2)nc(-c2cnc(NC(=O)NC3CC3)nc2)n1` [Example 14s, 3-cyclopropyl-1-[5-[4-[(3S)-3-methylmorpholin-4-yl]-6-(1-methylsulfonylcyclopentyl)pyri-midin-2-yl]pyrimidin-2-yl]urea], the 50% inhibitory concentration (IC50) came to 122 nM.

As to `CNC(=O)Nc1ncc(-c2nc(N3CCOC[C@@H]3C)cc(C3(S(C)(=O)=O)CCCC3)n2)cn1` [Example 14t, 3-methyl-1-[5-[4-[(3S)-3-methylmorpholin-4-yl]-6-(1-methylsulfonylcyclopentyl)pyri-midin-2-yl]pyrimidin-2-yl]urea], the IC50 was 197 nM. In the case of `C[C@H]1COCCN1c1cc(C2(S(C)(=O)=O)CCCC2)nc(-c2cnc(NC(=O)NCCO)nc2)n1` [Example 14u, 3-(2-hydroxyethyl)-1-[5-[4-[(3S)-3-methylmorpholin-4-yl]-6-(1-methylsulfonylcyclopentyl)pyri-midin-2-yl]pyrimidin-2-yl]urea] it was 123 nM; in that of `C[C@H]1COCCN1c1cc(C2(S(C)(=O)=O)CCCC2)nc(-c2cnc(NC(=O)Nc3cnn(C)c3)nc2)n1` [Example 14v, 1-[5-[4-[(3S)-3-methylmorpholin-4-yl]-6-(1-methylsulfonylcyclopentyl)pyri-midin-2-yl]pyrimidin-2-yl]-3-(1-methylpyrazol-4-yl)urea], 82.3 nM. Regarding `C[C@H]1COCCN1c1cc(C2(S(=O)(=O)C3CC3)CC2)nc(-c2cnc(NC(=O)NC3CC3)nc2)n1` [Example 14w, 3-cyclopropyl-1-[5-[4-(1-cyclopropylsulfonylcyclopropyl)-6-[(3S)-3-methylmorpholin-4-yl]pyrimidin-2-yl]pyrimidin-2-yl]urea], the IC50 was 208 nM. For the compound `CNC(=O)Nc1ncc(-c2nc(N3CCOC[C@@H]3C)cc(C3(S(=O)(=O)C4CC4)CC3)n2)cn1` [Example 14x, 1-[5-[4-(1-cyclopropylsulfonylcyclopropyl)-6-[(3S)-3-methylmorpholin-4-yl]pyrimidin-2-yl]pyrimidin-2-yl]-3-methylurea], the IC50 came to 630 nM. With `C[C@H]1COCCN1c1cc(C2(S(=O)(=O)C3CC3)CC2)nc(-c2cnc(NC(=O)NCCO)nc2)n1` [Example 14y, 1-[5-[4-(1-cyclopropylsulfonylcyclopropyl)-6-[(3S)-3-methylmorpholin-4-yl]pyrimidin-2-yl]pyrimidin-2-yl]-3-(2-hydroxyethyl)urea] the figure was 152 nM; with `C[C@H]1COCCN1c1cc(C2(S(=O)(=O)C3CC3)CC2)nc(-c2cnc(NC(=O)Nc3cnn(C)c3)nc2)n1` [Example 14z, 1-[5-[4-(1-cyclopropylsulfonylcyclopropyl)-6-[(3S)-3-methylmorpholin-4-yl]pyrimidin-2-yl]pyrimidin-2-yl]-3-(1-methylpyrazol-4-yl)urea], 171 nM. Consider `C[C@H]1COCCN1c1cc(C2(S(=O)(=O)CCO)CC2)nc(-c2ccc(NC(=O)NC3CC3)cc2)n1` [Example 15, 3-Cyclopropyl-1-[4-[4-[1-(2-hydroxyethylsulfonyl)cyclopropyl]-6-[(3S)-3-methylmorpholin-4-yl]pyrimidin-2-yl]phenyl]urea], for which the IC50 was found to be 1.54 nM. Regarding `CCNC(=O)Nc1ccc(-c2nc(N3CCOC[C@@H]3C)cc(C3(S(=O)(=O)CCO)CC3)n2)cc1` [Example 15a, 3-ethyl-1-[4-[4-[1-(2-hydroxyethylsulfonyl)cyclopropyl]-6-[(3S)-3-methylmorpholin-4-yl]pyrimidin-2-yl]phenyl]urea], the IC50 stood at 0.591 nM. Regarding `CNC(=O)Nc1ccc(-c2nc(N3CCOC[C@@H]3C)cc(C3(S(=O)(=O)CCO)CC3)n2)cc1` [Example 16, 1-[4-[4-[1-(2-Hydroxyethylsulfonyl)cyclopropyl]-6-[(3S)-3-methylmorpholin-4-yl]pyrimidin-2-yl]phenyl]-3-methylurea], the IC50 was 1.42 nM. With `C[C@H]1COCCN1c1cc(C2(S(=O)(=O)CCO)CC2)nc(-c2ccc(NC(=O)NC3CCC3)cc2)n1` [Example 16a, 3-cyclobutyl-1-[4-[4-[1-(2-hydroxyethylsulfonyl)cyclopropyl]-6-[(3S)-3-methylmorpholin-4-yl]pyrimidin-2-yl]phenyl]urea] the figure was 10.1 nM. With `C[C@H]1COCCN1c1cc(C2(S(=O)(=O)CCO)CC2)nc(-c2ccc(NC(=O)NCCO)cc2)n1` [Example 16b, 3-(2-hydroxyethyl)-1-[4-[4-[1-(2-hydroxyethylsulfonyl)cyclopropyl]-6-[(3S)-3-methylmorpholin-4-yl]pyrimidin-2-yl]phenyl]urea] the figure was 5.77 nM; with `C[C@H]1COCCN1c1cc(C2(S(=O)(=O)CCO)CC2)nc(-c2ccc(NC(=O)Nc3ncns3)cc2)n1` [Example 16c, 1-[4-[4-[1-(2-hydroxyethylsulfonyl)cyclopropyl]-6-[(3S)-3-methylmorpholin-4-yl]pyrimidin-2-yl]phenyl]-3-(1,2,4-thiadiazol-5-yl)urea], 1.6 nM. For the compound `C[C@H]1COCCN1c1cc(C2(S(=O)(=O)CCO)CC2)nc(-c2ccc(NC(=O)Nc3cnn(C)c3)cc2)n1` [Example 16d, 1-[4-[4-[1-(2-hydroxyethylsulfonyl)cyclopropyl]-6-[(3S)-3-methylmorpholin-4-yl]pyrimidin-2-yl]phenyl]-3-(1-methylpyrazol-4-yl)urea], the IC50 was found to be 3.64 nM. With `CCCNC(=O)Nc1ccc(-c2nc(N3CCOC[C@@H]3C)cc(C3(S(=O)(=O)CCO)CC3)n2)cc1` [Example 16e, 3-[4-[4-[1-(2-hydroxyethylsulfonyl)cyclopropyl]-6-[(3S)-3-methylmorpholin-4-yl]pyrimidin-2-yl]phenyl]-1-propylurea] the figure was 21.4 nM. For `C[C@H]1COCCN1c1cc(C2(S(=O)(=O)CCO)CC2)nc(-c2ccc(NC(=O)NCCCO)cc2)n1` [Example 16f, 1-[4-[4-[1-(2-hydroxyethylsulfonyl)cyclopropyl]-6-[(3S)-3-methylmorpholin-4-yl]pyrimidin-2-yl]phenyl]-3-(3-hydroxypropyl)urea], the IC50 is 21.2 nM. In the case of `C[C@H]1COCCN1c1cc(C2(S(=O)(=O)CCO)CC2)nc(-c2ccc(NC(=O)NCCC#N)cc2)n1` [Example 16g, 3-(2-cyanoethyl)-1-[4-[4-[1-(2-hydroxyethylsulfonyl)cyclopropyl]-6-[(3S)-3-methylmorpholin-4-yl]pyrimidin-2-yl]phenyl]urea] it was 17.6 nM. With `C[C@H]1COCCN1c1cc(C2(S(=O)(=O)CCO)CC2)nc(-c2ccc(NC(=O)NCc3ncc[nH]3)cc2)n1` [Example 16h, 1-[4-[4-[1-(2-hydroxyethylsulfonyl)cyclopropyl]-6-[(3S)-3-methylmorpholin-4-yl]pyrimidin-2-yl]phenyl]-3-(1H-imidazol-2-ylmethyl)urea] the figure was 186 nM; with `C[C@H]1COCCN1c1cc(C2(S(=O)(=O)CCO)CC2)nc(-c2ccc(NC(=O)NC3(CO)CC3)cc2)n1` [Example 16i, 1-[4-[4-[1-(2-hydroxyethylsulfonyl)cyclopropyl]-6-[(3S)-3-methylmorpholin-4-yl]pyrimidin-2-yl]phenyl]-3-[1-(hydroxymethyl)cyclopropyl]urea], 845 nM. In the case of `C[C@H]1COCCN1c1cc(C2(S(=O)(=O)c3cncc(F)c3)CC2)nc(-c2ccc(NC(=O)NCCO)cc2)n1` [Example 17, 1-[4-[4-[1-(5-Fluoropyridin-3-yl)sulfonylcyclopropyl]-6-[(3S)-3-methylmorpholin-4-yl]pyrimidin-2-yl]phenyl]-3-(2-hydroxyethyl)urea] it was 1.16 nM; in that of `CCNC(=O)Nc1ccc(-c2nc(N3CCOC[C@@H]3C)cc(C3(S(=O)(=O)c4cncc(F)c4)CC3)n2)cc1` [Example 17a, 3-ethyl-1-[4-[4-[1-(5-fluoropyridin-3-yl)sulfonylcyclopropyl]-6-[(3S)-3-methylmorpholin-4-yl]pyrimidin-2-yl]phenyl]urea], 0.942 nM; in that of `CNC(=O)Nc1ccc(-c2nc(N3CCOC[C@@H]3C)cc(C3(S(=O)(=O)c4cncc(F)c4)CC3)n2)cc1` [Example 17b, 1-[4-[4-[1-(5-fluoropyridin-3-yl)sulfonylcyclopropyl]-6-[(3S)-3-methylmorpholin-4-yl]pyrimidin-2-yl]phenyl]-3-methylurea], 0.584 nM. Take `C[C@H]1COCCN1c1cc(C2(S(=O)(=O)c3cncc(F)c3)CC2)nc(-c2ccc(NC(=O)NC3CC3)cc2)n1` [Example 17c, 3-cyclopropyl-1-[4-[4-[1-(5-fluoropyridin-3-yl)sulfonylcyclopropyl]-6-[(3S)-3-methylmorpholin-4-yl]pyrimidin-2-yl]phenyl]urea]: the IC50 was 1.79 nM. With `C[C@H]1COCCN1c1cc(C2(S(=O)(=O)C(C)(C)C)CC2)nc(-c2ccc(NC(=O)NC3CC3)cc2)n1` [Example 18, 1-[4-[4-(1-tert-Butylsulfonylcyclopropyl)-6-[(3S)-3-methylmorpholin-4-yl]pyrimidin-2-yl]phenyl]-3-cyclopropylurea], the IC50 was found to be 1.35 nM. For `C[C@H]1COCCN1c1cc(C2(S(=O)(=O)C(C)(C)C)CC2)nc(-c2ccc(NC(=O)Nc3ccccn3)cc2)n1` [Example 18b, 1-[4-[4-(1-tert-butylsulfonylcyclopropyl)-6-[(3S)-3-methylmorpholin-4-yl]pyrimidin-2-yl]phenyl]-3-pyridin-2-ylurea], the IC50 came to 14.7 nM. In the case of `CC(C)CNC(=O)Nc1ccc(-c2nc(N3CCOC[C@@H]3C)cc(C3(S(=O)(=O)C(C)(C)C)CC3)n2)cc1` [Example 18c, 1-[4-[4-(1-tert-butylsulfonylcyclopropyl)-6-[(3S)-3-methylmorpholin-4-yl]pyrimidin-2-yl]phenyl]-3-(2-methylpropyl)urea] it was 32 nM; in that of `CC(C)NC(=O)Nc1ccc(-c2nc(N3CCOC[C@@H]3C)cc(C3(S(=O)(=O)C(C)(C)C)CC3)n2)cc1` [Example 18d, 1-[4-[4-(1-tert-butylsulfonylcyclopropyl)-6-[(3S)-3-methylmorpholin-4-yl]pyrimidin-2-yl]phenyl]-3-propan-2-ylurea], 15.1 nM.
